Experimental data reported in patent US9457044B2, “Methods and compositions for wound healing” (CoDa Therapeutics, Inc., priority 2006, dated 2016).

Legend:
[1] = tested on: human limbal epithelial cells; assay: Human limbal rim-denuded pig stromal matrix chimera re-epithelialisation; assay type: cell-based; details: treated at day one; controls 7 to 14 days
Method: Human limbal rims returned from surgery after excision of the central corneas for keratoplasty (transplant) were placed into air liquid interface organotypic culture and a denuded pig stromal extracellular matrix inserted into the central region (FIG. 14). The pig stromal matrix was denuded (cells removed) by freeze-thawing in liquid nitrogen.
The chimeras were grown for up to 2 weeks at which time the human limbal epithelial cells have re-epithelialised the pig stroma with a normal 5-7 cell layer fully differentiated epithelium. In addition, human limbal stromal keratocytes have proliferated and migrated across the limbal rim—stromal insert to repopulate the pig stromal matrix with human keratocytes.
In a further experiment the chimeras were treated with connexin 43 specific antisense ODNs at day one.

myofibroblasts = assay: Anti-α smooth muscle actin staining of myofibroblasts in granulation tissue; assay type: in vivo, mice
Method: (§1) Male, 8 week old, ICR mice were used in the following experiments. All the mice were kept under specific pathogen-free conditions in an environmentally controlled clean room at University College London and all the experiments were carried out under UK Home Office regulations. Mice were anaesthetized by halothane inhalation. Four full-thickness excisional wounds of 6 mm diameter were made on the shaved back on either side of the dorsal midline with a 6 mm biopsy punch (Kai Industries). To each pair of wounds a single topical application of 50 μl of 1 μM Cx43 as ODN (SEQ. ID No. 2) (Sigma-Genosys) in 30% Pluronic F-127 gel (Sigma-Aldrich), chilled on ice, was made to one wound, and an identical application of 1 μM sense control sODNs was made to the other. […] R. and Becker, D. L. (2003). Targeting connexin 43 expression accelerates the rate of wound repair. Curr Biol 13, 1697-703). Each wound region was digitally photographed at the indicated time intervals, and the areas of the wounds were calculated. All wound areas were expressed as percentages of the initial wound areas. In some series of experiments, wounds and their surrounding area, including the scab and epithelial margins, were harvested with an 8 mm biopsy punch (Kai Industries) at the indicated time intervals after mice were killed with an overdose of chloroform. A minimum of eight mice were used for each time point examined.
Immunostaining for connexin 43, blood vessels or a smooth muscle actin was carried out on cryostat sections of wounds. Sections were fixed in acetone at 4° C. for 5 minutes prior to blocking for 45 minutes. Incubation in primary antibody was for one hour at the following dilutions: rabbit anti-Cx43 (Sigma) 1:3,000; isoLectin B_FITC 1:2000; von Willebrand Factor (rabbit Dako) 1:400; anti-α smooth muscle actin (Sigma) 1:400 at room temperature. […]
A treatment-blinded observer counted MPO-positive neutrophils and F4/80-positive macrophages in the wound bed (defined as the area surrounded by unwounded skin, fascia, regenerated epidermis, and eschar) in 3 random high-power fields of 0.332 mm^2. BrdU-positive cells in the wound margin and the nascent epidermis regions of each immunohistochemically stained section were counted as described previously and expressed per […] of epidermis (Mori, R., Kondo, T., Nishie, T., Ohshima, T. and Asano, M. (2004). Impairment of skin wound healing in beta-1,4-galactosyltransferase-deficient mice with reduced leukocyte recruitment. Am J Pathol 164, 1303-14). Number of fibroblast like cells (phalloidin-positive cells with spindle-shape body) at the wound margin were counted in high-power fields also (each field was 0.332 mm^2). […] Images were made binary at a standard threshold and positive pixels were counted using Image J (NIH Image).

Ccl2 mRNA = assay: Real-Time PCR of Ccl2 at wound sites; assay type: in vivo, mice; details: day 2; P<0.05 versus control sODN
Method: as §1, with “In some series of experiments, wounds and their surrounding area, including the scab and epithelial margins, were harvested with an 8 mm biopsy punch (Kai Industries) at the indicated time intervals after mice were killed with an overdose of chloroform. A minimum of eight mice were used for each time point examined.” left out
Gene specific primers and probe were obtained as TaqMan® Gene Expression Assays (Applied Biosystems) for Cx43, Ccl2, Co1α1, TNFα and TGFβ1. […] Each sample was analyzed in duplicate. […]

Sequence: GTAATTGCGGCAGGAGGAATTGTTTCTGTC (antisense GTAATTGCGGCAGGAGGAATTGTTTCTGTC; in Pluronic F-127 gel, further chemistry not given here) [Cx43 asODN]
- time to full epithelial covering of the pig stroma [1]: ≤ 3 days
- SMA staining at the edges of the granulation tissue (myofibroblasts; 10 days after wounding, P=0.000002 versus control): most of the staining for SMA had gone
- SMA staining (myofibroblasts; day 5, no staining in control wounds): could be detected at the edges of the granulation tissue
- SMA staining at the edges of the granulation tissue, quantified (myofibroblasts; day 7, P=0.004 versus control): significantly higher
- advance over controls in maturation of granulation tissue (myofibroblasts; mouse, in vivo): 2 to 3 days
- expression level of Ccl2 mRNA (Ccl2 mRNA): significantly reduced
